Laboratory results as given in ChEMBL document CHEMBL1136669, “Synthesis of aza and oxaglutamyl-p-nitroanilide derivatives and their kinetic studies with gamma-glutamyltranspeptidase” (Bioorg Med Chem Lett, 2003).

Biological target: Glutathione hydrolase 1 proenzyme (Rattus norvegicus, UniProt P07314)
Experiment: Compound was tested for the competitive inhibition of rat kidney gamma-glutamyltranspeptidase (gamma-GGT)

Glutathione hydrolase 1 proenzyme, sequence (P07314 1-379 limits assumed): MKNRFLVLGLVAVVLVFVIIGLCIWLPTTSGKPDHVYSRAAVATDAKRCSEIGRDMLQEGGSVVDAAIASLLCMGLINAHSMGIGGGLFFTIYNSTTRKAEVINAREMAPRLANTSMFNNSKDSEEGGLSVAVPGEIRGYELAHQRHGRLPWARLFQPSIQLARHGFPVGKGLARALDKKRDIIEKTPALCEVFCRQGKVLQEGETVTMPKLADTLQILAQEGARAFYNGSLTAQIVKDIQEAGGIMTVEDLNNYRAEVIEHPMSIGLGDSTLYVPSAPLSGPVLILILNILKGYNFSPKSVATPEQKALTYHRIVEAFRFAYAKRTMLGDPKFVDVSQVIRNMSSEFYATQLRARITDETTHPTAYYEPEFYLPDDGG
Glutathione hydrolase 1 proenzyme, sequence (P07314 380-568 limits assumed): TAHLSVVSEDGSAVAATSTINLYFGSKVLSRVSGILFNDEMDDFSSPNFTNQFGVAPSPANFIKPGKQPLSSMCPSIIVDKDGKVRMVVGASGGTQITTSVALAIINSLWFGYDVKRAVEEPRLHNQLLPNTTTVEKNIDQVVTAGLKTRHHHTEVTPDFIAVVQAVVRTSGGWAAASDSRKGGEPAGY

Cl.N[C@@H](CNC(=O)Nc1ccc([N+](=O)[O-])cc1)C(=O)O
Ki comp: 3.8 mM
